Experimental data taken from paper PMC12446565, “Perinatal Maturation of Drug Transporters and Claudin‐5 at the Blood–Brain Barrier” (CNS Neuroscience & Therapeutics, 2025).
Where two headings read alike, the source gives them in different places.

Columns and labels:
[1] = BBB integrity: vascular volume (V vasc) of [14C]sucrose after i.p. injection; format: in vivo, Swiss mice; settings: for Kp at 5 min: Swiss, mouse, brain/blood, ip, 0.31 MBq/kg, 5 min post i.p. injection
Procedure: (§1) Mice were then decapitated according to selected time points, with blood samples collected following decapitation. The brain was then removed from the skull. For each mouse, the brain hemispheres and two blood samples were weighed in Econo glass vials for liquid scintillation counting (Perkin Elmer). All samples were treated with a tissue solubilizer (Solvable, Perkin Elmer). Blood samples were in addition decolored with 0.2 mL of 30% hydrogen peroxide solution to avoid color quenching issues. After complete tissue sample digestion (24 h in a water bath at 45°C), the vials were cooled and mixed with Ultima‐gold XR (Perkin Elmer). The radioactivity in each vial, expressed in disintegrations per minute (dpm) for ^3H and ^14C, was counted in a Perkin Elmer Tri‐Carb counter.
First, the vascular volume (V vasc, μL/g) was estimated for each mouse as the brain volume of distribution (V d) of [^14C]sucrose:
[^14C]sucrose V d was calculated as the ratio of midbrain to blood carbon‐14 associated radioactivity (dpm/g) measured at 5 min post i.p. injection. Vvasc=Vdsucrose=Xsucrose,brain/Csucrose,blood
Where X sucrose,brain (dpm/g), is the calculated amount of [^14C]sucrose from the brain and C sucrose,blood (dpm/μL) its blood concentration. The data for any animal whose V vasc was an aberrant value was excluded from the study.
The vascular volume based [^14C]sucrose calculation was used as the outcome parameter for BBB integrity. Higher levels in V vasc indicate leakage of [^14C]sucrose into the brain parenchyma because of BBB leakage.

[2] = Swiss, mouse, in vivo
Procedure: as §1
For [^3H]rosuvastatin, data collection was performed at 5 and 7 min post i.p. injection. […] This avoids quantification bias caused by the formation of possible radiolabelled metabolites.
First, the vascular volume (V vasc, μL/g) was estimated for each mouse as the brain volume of distribution (V d) of [^14C]sucrose: […]

Row | Kp at 5 min ([1]; mice at P5, brain/blood ratio, read-out: Vv, Mean) | Kp at 5 min ([1]; mice at P5, read-out: Vv, Median) | Kp at 5 min ([1]; mice at P15, brain/blood ratio, read-out: Vv, Mean) | Kp at 5 min ([1]; mice at P15, read-out: Vv, Median) | Kp at 5 min ([1]; mice at P30, brain/blood ratio, read-out: Vv, Mean) | Kp at 5 min ([1]; mice at P30, read-out: Vv, Median) | V vasc, comparison between ages ([1]; mice at P5, P15 and P30) | decrease of cerebral (brain) transport at P30 compared to P15 [2] | SMILES
1 | 0.0276 | 0.0235 | 0.0272 | 0.0256 | 0.0279 | 0.0292 | did not differ between P5, P15, and P30 |  | OC[C@H]1O[C@@](CO)(O[C@H]2O[C@H](CO)[C@@H](O)[C@H](O)[C@H]2O)[C@@H](O)[C@@H]1O [14C-Sucrose, sucrose]
2 |  |  |  |  |  |  |  | 6.8 fold | CC(C)c1nc(N(C)S(C)(=O)=O)nc(-c2ccc(F)cc2)c1/C=C/[C@@H](O)C[C@@H](O)CC(=O)O [3H-Rosuvastatin, rosuvastatin]
